Reference: patent US20200268720A1, “METHODS OF USE OF A CLASS IIA HDAC INHIBITOR” (GlaxoSmithKline LLC, priority 2016, published 2020)
Entries after “also recorded” stand apart in the source; their conditions may differ.

What was measured:
[1] = tested on: myeloid cells (CD11b+) and T lymphocyte (CD3+) populations in the tumor; assay: Gene expression of FACS double-sorted tumor infiltrating leukocytes from MMTV-PyMT tumors; format: in vivo, mouse
Experimental: Tumor cells were isolated and processed as previously described. To enrich for CD45^+ immune cells, EPCAM^+ tumor cell depletion was carried out. Whole tumor cell suspension was incubated with biotinylated anti-EPCAM antibody (MACS Miltenyi cat. #130-101-859, clone caa7-9G8) for 10 minutes followed by incubation with Anti-Biotin Microbeads (MACS Miltenyi cat. #130-090-485) for 15 minutes at 4° C. in the dark. […] Following negative selection, EPCAM-depleted cells were stained for anti-mouse CD45 Alex FLOUR® 488 (BioLegend cat. #103121, clone 30-F11), anti-mouse CD3 BV421 (BioLegend cat. #100227, clone 17A2), anti-mouse CD11b APC (BioLegend cat. #101211, clone M1/70), and anti-mouse CD19 (BioLegend cat. #115507, clone 6D5). 7-AAD Viability Staining Solution (BioLegend cat. #420403) was applied to the cells 10 minutes prior to sorting on the BD FACSAria. CD45+/CD19-/7-AAD-/CD3+ cells and CD45+/CD19-/7-AAD-/CD11b+ cells were sorted into DMEM medium (Life Technologies cat. #11995-065) containing 2% FBS at 4° C. Cells were pelleted and immediately lysed in RNEASY® RLT buffer (RNEASY® Mini Plus Kit, Qiagen cat. #74134) containing 2-mercaptoethanol. RNA was isolated according to RNEASY® instructions in combination with RNase-Free DNase Set (Qiagen cat. #79254) standard protocol, and quality was verified with the Nanodrop™ Spectrophotometer. To obtain adequate amounts of RNA tumors from 5 mice were pooled together for each “sample”.
All procedures were performed at Boston University Microarray Resource Facility as described in the GENECHIP® Whole Transcript (WT) Plus Reagent Kit Manual (Affymetrix, Santa Clara, Calif.). Briefly, the total RNA was isolated using an RNEASY® kit (Qiagen), and the sample integrity was verified using RNA 6000 Pico Assay RNA chips run in Agilent 2100 Bioanalyzer (Agilent Technologies). The total RNA (200 ng) was reverse transcribed using GENECHIP® WT PLUS Reagent Kit (Affymetrix). The obtained cDNA was used as a template for in vitro transcription using GeneChip® WT Expression Kit (Life Technologies). The obtained antisense cRNA was purified using Nucleic Acid Binding Beads (GENECHIP® WT PLUS Reagent Kit, Affymetrix) and used as a template for reverse transcription to produce single-stranded DNA in the sense orientation. During this step, dUTP was incorporated. The DNA was then fragmented using uracil DNA glycosylase (UDG) and apurinic/apyrimidinic endonuclease 1 (APE 1) and labeled with DNA labeling reagent covalently linked to biotin using terminal deoxynucleotidyl transferase (TdT, GENECHIP® WT PLUS Reagent Kit, Affymetrix). IVT and cDNA fragmentation quality controls were carried out by running an mRNA Pico assay in the Agilent 2100 Bioanalyzer. […]

[2] = tested on: mouse MMTV-PyMT breast tumor cell lines; assay: In vitro cell death assay (CellTiter-Glo), mouse lines; format: cell-based; conditions: 0, 0.1, 1, 10 μM, 48 hours
Experimental: The human breast cancer cell lines (BT20, MCF7, HCC202, T47D, MDA-MB-453 and MDA-MB-436) were obtained from ATCC. Prior to use, cell line authentication was performed by either STR profiling at Dana-Farber Cancer Institute or by Fluidigm based fingerprinting with a panel of SNPs at The Broad Institute. Cell lines were tested for mycoplasma with the MycoAlert PLUS Mycoplasma Detection Kit (Lonza LT07) according to manufacturer's instructions. Mouse breast tumor cell lines were established from 4 different MMTV-PyMT tumor bear mice. Mouse breast tumor cell line 7333 was implanted into wild-type littermates and once the tumor formed it was removed and used to generate the tumor cell line “MMTV”. All cells were plated at 1E4 cells/well in a 96 well plate. Cells were treated for 48 hours and CellTiter-Glo was used to assess cell viability.

MMTV-PyMT tumors [3] = assay: Combination with chemotherapy (Carboplatin, Paclitaxel) in MMTV-PyMT mice; format: in vivo, mouse
MMTV-PyMT tumors [4] = assay: Combination with PD-1 checkpoint blockade in MMTV-PyMT mice; format: in vivo, mouse; conditions: TMP195 50 mg/kg IP daily plus 250 μg anti-PD-1
[5] = tested on: human monocytes, T or B cells; conditions: cited from earlier work
[6] = TMP195 daily for 5 days vs DMSO
[7] = TMP195 50 mg/kg IP daily plus PTX 10 mg/kg IV

SMILES: CC(C)(CNC(=O)c1cccc(-c2noc(C(F)(F)F)n2)c1)c1coc(-c2ccccc2)n1 [TMP195, N-(2-methyl-2-(2-phenyloxazol-4-yl)propyl)-3-(5-(trifluoromethyl)-1,2,4-oxadiazol-3-yl)benzamide]
- number of differentially expressed probes (δ-factor >1.5) in CD3+ cells [1, 6]: 3 probes
- number of differentially expressed probes (δ-factor >1.5) in CD11b+ cells [1, 6]: 26 probes
- increase in gene expression in CD11b+ myeloid cells ([1]; TMP195 daily for 5 days vs DMSO, probes with δ-factor >1.5): up to 4.8 fold
- IFNγ response gene signature in tumor-resident CD11b+ cells ([1]; TMP195 treatment): induced an IFNγ response gene signature
- cell viability, 6 mouse MMTV-PyMT cell lines [2]: not directly cytotoxic; also recorded: does not affect cell viability
- tumor burden, combination with Carboplatin (MMTV-PyMT tumors [3]; TMP195 50 mg/kg IP daily plus Carboplatin 50 mg/kg IV every 5 days): significant reduction in tumor burden compared to either monotherapy
- durability of efficacy, combination of TMP195 and PTX (MMTV-PyMT tumors [3]; [7]): at least 29 days
- durability, combination of TMP195 plus PTX (figure legend) (MMTV-PyMT tumors [3]; [7]): durable for at least one month
- tumor burden, combination with Paclitaxel (MMTV-PyMT tumors [3]; TMP195 50 mg/kg IP daily plus Paclitaxel 10 mg/kg IV every 5 days): significant reduction in tumor burden compared to either monotherapy
- tumor burden, TMP195 added to the anti-PD-1 regimen (MMTV-PyMT tumors [4]): significantly greater reduction in tumor burden than TMP195 alone
- gene expression of monocytes and lymphocytes ([5]; previous report): altered monocyte gene expression without affecting that of lymphocytes
- direct cytotoxicity to human monocytes, T or B cells ([5]; previously reported): not directly cytotoxic
